Read-outs that look alike come from different tables or passages of the source.

By EC50 is commonly meant the concentration that produces a half-maximal response.

The target of one test is FynT enzyme (Homo sapiens (Human), UniProt P06241). Nature of the test: FynT enzyme activity (IMAP fluorescence polarization assay). Format: biochemical. The conditions noted are these: 60 min pre-incubation, 0.2 μM ATP. The essentials: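 Human FynT pre-incubated with compounds 60 min at room temperature, then reacted 2 h at room temperature with fluorescein-labelled p34cdc2 peptide (100 nM final). Stopped with IMAP binding solution; fluorescence polarization read after 60 min. Activity as % of ±ATP control difference; EC50 by curve fitting.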
FynT enzyme, sequence (P06241 other isoform, or with tags, fused parts or gaps): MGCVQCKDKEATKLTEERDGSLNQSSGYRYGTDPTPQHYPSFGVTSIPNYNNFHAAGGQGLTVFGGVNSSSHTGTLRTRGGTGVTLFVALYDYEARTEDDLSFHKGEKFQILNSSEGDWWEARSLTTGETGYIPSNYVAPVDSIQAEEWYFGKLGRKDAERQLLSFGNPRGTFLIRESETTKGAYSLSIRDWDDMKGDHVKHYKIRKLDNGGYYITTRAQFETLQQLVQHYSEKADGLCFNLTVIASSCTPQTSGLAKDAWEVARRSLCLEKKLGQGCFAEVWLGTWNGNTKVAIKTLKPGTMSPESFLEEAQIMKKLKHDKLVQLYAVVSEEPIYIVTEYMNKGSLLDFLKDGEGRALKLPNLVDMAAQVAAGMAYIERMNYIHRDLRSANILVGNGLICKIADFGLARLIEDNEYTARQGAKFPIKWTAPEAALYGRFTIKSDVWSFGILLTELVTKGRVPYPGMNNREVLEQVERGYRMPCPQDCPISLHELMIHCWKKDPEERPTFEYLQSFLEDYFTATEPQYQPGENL
For orientation: Fluorescence polarisation rises when a labelled molecule tumbles more slowly, as on binding a larger partner.

For a further test, the target named is Btk enzyme (His-Btk) (Homo sapiens (Human), UniProt Q06187). Nature of the test: Btk enzyme activity (IMAP fluorescence polarization assay).
Btk enzyme (His-Btk), sequence (Q06187 whole entry): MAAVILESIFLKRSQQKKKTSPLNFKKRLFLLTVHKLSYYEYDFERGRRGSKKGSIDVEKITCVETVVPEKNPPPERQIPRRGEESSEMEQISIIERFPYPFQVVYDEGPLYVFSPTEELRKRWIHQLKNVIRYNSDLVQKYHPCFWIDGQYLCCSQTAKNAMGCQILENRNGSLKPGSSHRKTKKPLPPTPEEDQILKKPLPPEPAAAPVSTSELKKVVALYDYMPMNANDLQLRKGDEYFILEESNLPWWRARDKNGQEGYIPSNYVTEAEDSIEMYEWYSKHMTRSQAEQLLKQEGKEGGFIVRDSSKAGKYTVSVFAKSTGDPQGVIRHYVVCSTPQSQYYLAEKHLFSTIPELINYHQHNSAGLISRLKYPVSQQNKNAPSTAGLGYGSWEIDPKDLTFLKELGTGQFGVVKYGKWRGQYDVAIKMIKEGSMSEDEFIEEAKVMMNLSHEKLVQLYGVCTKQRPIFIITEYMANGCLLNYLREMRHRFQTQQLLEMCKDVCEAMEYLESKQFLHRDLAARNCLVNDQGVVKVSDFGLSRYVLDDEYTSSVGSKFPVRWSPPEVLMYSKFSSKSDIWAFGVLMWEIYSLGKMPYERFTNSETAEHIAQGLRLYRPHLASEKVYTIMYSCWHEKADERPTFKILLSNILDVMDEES
Another test has as its target Src enzyme (Homo sapiens (Human), UniProt P12931). Nature of the test: Src enzyme activity (IMAP fluorescence polarization assay).
A further test deals with Lyn enzyme (Homo sapiens (Human), UniProt P07948). Nature of the test: Lyn enzyme activity (IMAP fluorescence polarization assay).
Lyn enzyme, sequence (P07948 whole entry): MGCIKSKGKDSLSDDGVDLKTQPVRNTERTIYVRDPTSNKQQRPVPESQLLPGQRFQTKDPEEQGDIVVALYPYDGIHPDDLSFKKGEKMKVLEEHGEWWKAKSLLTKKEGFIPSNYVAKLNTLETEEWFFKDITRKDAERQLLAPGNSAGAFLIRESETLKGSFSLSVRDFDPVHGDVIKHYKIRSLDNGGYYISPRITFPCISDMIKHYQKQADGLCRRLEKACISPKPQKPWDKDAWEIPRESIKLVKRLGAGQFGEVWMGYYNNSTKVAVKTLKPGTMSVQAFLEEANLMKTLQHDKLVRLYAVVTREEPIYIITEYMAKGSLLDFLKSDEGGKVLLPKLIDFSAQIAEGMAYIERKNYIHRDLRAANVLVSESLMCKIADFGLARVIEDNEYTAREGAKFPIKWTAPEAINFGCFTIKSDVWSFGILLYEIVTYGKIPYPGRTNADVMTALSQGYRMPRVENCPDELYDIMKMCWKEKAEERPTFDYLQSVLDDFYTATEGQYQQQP
A further test deals with Lck enzyme (Homo sapiens (Human), UniProt P06239). In words: Lck enzyme activity (IMAP fluorescence polarization assay).
Lck enzyme, sequence (P06239 whole entry): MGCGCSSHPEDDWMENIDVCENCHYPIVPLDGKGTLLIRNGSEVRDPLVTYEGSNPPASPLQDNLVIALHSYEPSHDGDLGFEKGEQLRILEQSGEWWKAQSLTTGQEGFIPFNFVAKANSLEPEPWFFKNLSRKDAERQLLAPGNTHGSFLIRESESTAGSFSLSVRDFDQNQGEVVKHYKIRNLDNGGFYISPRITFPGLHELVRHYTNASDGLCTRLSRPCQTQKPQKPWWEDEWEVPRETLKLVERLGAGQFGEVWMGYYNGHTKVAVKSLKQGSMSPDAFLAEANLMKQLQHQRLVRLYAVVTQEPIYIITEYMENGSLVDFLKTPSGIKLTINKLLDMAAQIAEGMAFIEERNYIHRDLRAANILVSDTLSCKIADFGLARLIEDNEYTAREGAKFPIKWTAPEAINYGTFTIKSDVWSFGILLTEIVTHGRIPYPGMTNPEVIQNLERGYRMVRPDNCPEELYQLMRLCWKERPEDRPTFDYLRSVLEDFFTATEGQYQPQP
Setting [1] is: IMAP, 60 min pre-incubation, 5 μM ATP, bin bound in nM.
[2] abbreviates: read-out: EC50 Src activity values, IMAP, 60 min pre-incubation, 4 μM ATP.
The mark [3] stands for this setting: read-out: EC50 Lyn activity values, 60 min pre-incubation, 2 μM ATP, bin bound in μM.
Where [4] appears, read: read-out: EC50 Lck activity values, IMAP, 60 min pre-incubation, 6 μM ATP, bin bound in μM.
The mark [5] stands for this setting: read-out: EC50 Btk activity values, IMAP, 60 min pre-incubation, 5 μM ATP, bin bound in nM.
Setting [6] is: EC50 Lyn activity values, 60 min pre-incubation, 2 μM ATP, bin bound in μM.

Src enzyme, sequence (P12931 whole entry, looked up): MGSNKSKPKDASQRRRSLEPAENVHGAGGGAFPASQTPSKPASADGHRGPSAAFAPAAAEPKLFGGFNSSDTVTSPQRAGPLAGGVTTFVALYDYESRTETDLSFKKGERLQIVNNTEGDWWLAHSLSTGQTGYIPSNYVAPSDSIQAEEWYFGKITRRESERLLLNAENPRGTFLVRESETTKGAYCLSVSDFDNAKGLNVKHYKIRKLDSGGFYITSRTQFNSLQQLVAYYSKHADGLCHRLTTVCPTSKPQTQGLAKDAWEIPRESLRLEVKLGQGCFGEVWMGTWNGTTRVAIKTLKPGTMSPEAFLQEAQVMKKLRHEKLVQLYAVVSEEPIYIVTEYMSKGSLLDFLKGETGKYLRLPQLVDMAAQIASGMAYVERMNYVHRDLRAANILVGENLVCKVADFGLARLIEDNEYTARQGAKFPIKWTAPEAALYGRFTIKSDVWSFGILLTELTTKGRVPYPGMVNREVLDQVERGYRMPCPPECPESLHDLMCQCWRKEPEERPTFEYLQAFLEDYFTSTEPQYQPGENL
Description for Btk enzyme (His-Btk): Inhibition of kinase activity can be measured using the Immobilized Metal Assay for Phosphochemicals (IMAP) assay. IMAP is a homogeneous fluorescence polarization (FP) assay based on affinity capture of phosphorylated peptide substrates. IMAP uses fluorescein-labeled peptide substrates that, upon phosphorylation by a protein kinase, bind to so-called IMAP nanoparticles, which are derivatized with trivalent metal complexes.
Final peptide substrate concentration in assay is 50 nM.

Take `CC#CC(=O)N1CCC[C@H]1c1nc(-c2ccc(C(=O)Nc3cc(F)ccn3)cc2)c2c(N)nccn12` [Example 106, (S)-4-(8-amino-3-(1-but-2-ynoylpyrrolidin-2-yl)imidazo[1,5-a]pyrazin-1-yl)-N-(4-fluoropyridin-2-yl)benzamide]: the half-maximal effective concentration (EC50) on FynT enzyme is at least 1 µM; at Btk enzyme (His-Btk), 10 to 100 nM; on Src enzyme (setting [2]), at least 1 µM; on Lyn enzyme (setting [3]), at least 1 µM; at Lck enzyme (setting [4]), at least 1 µM. In addition, the “EC50 Btk activity values” on Btk enzyme (His-Btk) (setting [1]) is recorded as below 100 nM.

On to `C=CC(=O)N1CCCC[C@H]1c1nc(-c2ccc(C(=O)Nc3cc(F)ccn3)cc2)c2c(N)nccn12` [Example 17, (S)-4-(3-(1-Acryloylpiperidin-2-yl)-8-aminoimidazo[1,5-a]pyrazin-1-yl)-N-(4-fluoropyridin-2-yl)benzamide], for which the half-maximal effective concentration (EC50) was at least 1 µM on FynT enzyme; below 10 nM on Btk enzyme (His-Btk) (setting [5]); at least 1 µM at Src enzyme (setting [2]); at least 1 µM on Lyn enzyme (setting [3]); at least 1 µM on Lck enzyme (setting [4]).

For the molecule `CCc1cnc(NC(=O)c2ccc(-c3nc([C@@H]4CCCCN4C(=O)/C=C/COC)n4ccnc(N)c34)cc2)s1` [Example 25, (S,E)-4-(8-Amino-3-(1-(4-methoxybut-2-enoyl)piperidin-2-yl)imidazo[1,5-a]pyrazin-1-yl)-N-(5-ethylthiazol-2-yl)benzamide], the 50% effective concentration (EC50) at FynT enzyme was at least 1 µM; at Btk enzyme (His-Btk) (setting [5]), below 10 nM; at Src enzyme (setting [2]) it was at least 1 µM; on Lyn enzyme (setting [3]) it was at least 1 µM; at Lck enzyme (setting [4]), at least 1 µM.

Consider `CCCc1ccnc(NC(=O)c2ccc(-c3nc([C@@H]4CCCCN4C(=O)/C=C/COC)n4ccnc(N)c34)cc2F)c1` [Example 114, (S,E)-4-(8-amino-3-(1-(4-methoxybut-2-enoyl)piperidin-2-yl)imidazo[1,5-a]pyrazin-1-yl)-2-fluoro-N-(4-propylpyridin-2-yl)benzamide], for which the EC50 is at least 1 µM on FynT enzyme; 10 to 100 nM at Btk enzyme (His-Btk); at least 1 µM on Src enzyme (setting [2]); at least 1 µM on Lyn enzyme (setting [3]); at least 1 µM at Lck enzyme (setting [4]). At Btk enzyme (His-Btk) (setting [1]), the “EC50 Btk activity values” is listed as below 100 nM.

Regarding `Cc1ccnc(NC(=O)c2ccc(-c3nc([C@@H]4CCCN4C(=O)c4ccnc(Cl)n4)n4ccnc(N)c34)cc2)c1` [Example 129, (S)-4-(8-amino-3-(1-(2-chloropyrimidine-4-carbonyl)pyrrolidin-2-yl)imidazo[1,5-a]pyrazin-1-yl)-N-(4-methylpyridin-2-yl)benzamide], the EC50 was at least 1 µM at FynT enzyme; below 10 nM at Btk enzyme (His-Btk) (setting [5]); at least 1 µM at Src enzyme (setting [2]); at least 1 µM on Lyn enzyme (setting [3]); at least 1 µM on Lck enzyme (setting [4]).

For the molecule `CCCc1ccnc(NC(=O)c2ccc(-c3nc([C@H](C)N(C)C(=O)/C=C/COC)n4ccnc(N)c34)cc2)c1` [Example 48, (S,E)-4-(8-amino-3-(1-(4-methoxy-N-methylbut-2-enamido)ethyl)imidazo[1,5-a]pyrazin-1-yl)-N-(4-propylpyridin-2-yl)benzamide], the EC50 was at least 1 µM on FynT enzyme; below 10 nM at Btk enzyme (His-Btk) (setting [5]); at least 1 µM at Src enzyme (setting [2]); at least 1 µM at Lyn enzyme (setting [3]); at least 1 µM on Lck enzyme (setting [4]).

In the case of `C=CC(=O)N1CCC[C@H]1c1nc(-c2ccc(C(=O)Nc3cc(CCC)ccn3)cc2)c2c(N)nccn12` [Example 125, (S)-4-(3-(1-acryloylpyrrolidin-2-yl)-8-aminoimidazo[1,5-a]pyrazin-1-yl)-N-(4-propylpyridin-2-yl)benzamide], the EC50 was at least 1 µM on FynT enzyme; below 10 nM at Btk enzyme (His-Btk) (setting [5]); at least 1 µM at Src enzyme (setting [2]); 0.1 to 1 µM at Lyn enzyme (EC50 Lyn activity values, 60 min pre-incubation, 2 μM ATP, bin bound in nM); 0.1 to 1 µM on Lck enzyme. In addition, on Lyn enzyme (60 min pre-incubation, 2 μM ATP, bin bound in μM), the “EC50 Lyn activity values” was below 1 µM. The “EC50 Lck activity values” on Lck enzyme (IMAP, 60 min pre-incubation, 6 μM ATP, bin bound in μM) was below 1 µM.

Take `Nc1nccn2c([C@@H]3CCCN3C(=O)/C=C/CN3CCCC3)nc(-c3ccc(C(=O)Nc4ccccn4)cc3)c12` [Example 2, (S,E)-4-(8-amino-3-(1-(4-(pyrrolidin-1-yl)but-2-enoyl)pyrrolidin-2-yl)imidazo[1,5-a]pyrazin-1-yl)-N-(pyridin-2-yl)benzamide]: the EC50 on FynT enzyme was at least 1 µM; on Btk enzyme (His-Btk), 10 to 100 nM; on Src enzyme, at least 1 µM; on Lyn enzyme (setting [6]) it was at least 1 µM; on Lck enzyme it was at least 1 µM. At Btk enzyme (His-Btk) (setting [1]), the “EC50 Btk activity values” was below 100 nM.

Take `C=CC(=O)N1CCCC[C@H]1c1nc(-c2ccc(C(=O)Nc3cc(C(F)(F)F)ccn3)cc2)c2c(N)nccn12` [Example 109, (S)-4-(3-(1-acryloylpiperidin-2-yl)-8-aminoimidazo[1,5-a]pyrazin-1-yl)-N-(4-(trifluoromethyl)pyridin-2-yl)benzamide]: the 50% effective concentration (EC50) was at least 1 µM at FynT enzyme; below 10 nM at Btk enzyme (His-Btk) (setting [5]); at least 1 µM on Src enzyme (setting [2]); at least 1 µM on Lyn enzyme (setting [3]); at least 1 µM on Lck enzyme (setting [4]).

In the case of `C=CC(=O)N1CCC[C@H]1c1nc(-c2ccc(C(=O)Nc3ccccn3)cc2)c2c(N)nccn12` [Example 1, (S)-4-(3-(1-Acryloylpyrrolidin-2-yl)-8-aminoimidazo[1,5-a]pyrazin-1-yl)-N-(pyridin-2-yl)benzamide], the concentration for a half-maximal effect (EC50) at FynT enzyme is at least 1 µM; on Btk enzyme (His-Btk) (setting [5]), below 10 nM; at Src enzyme (setting [2]), at least 1 µM; on Lyn enzyme (setting [3]), at least 1 µM; on Lck enzyme (setting [4]), at least 1 µM.

As to `Nc1nccn2c([C@@H]3CCCN3C(=O)c3ccnc(Cl)n3)nc(-c3ccc(C(=O)Nc4ccccn4)cc3)c12` [Example 5, (S)-4-(8-amino-3-(1-(2-chloropyrimidine-4-carbonyl)pyrrolidin-2-yl)imidazo[1,5-a]pyrazin-1-yl)-N-(pyridin-2-yl)benzamide], the EC50 at FynT enzyme was at least 1 µM; at Btk enzyme (His-Btk), 10 to 100 nM; at Src enzyme (setting [2]), at least 1 µM; on Lyn enzyme (setting [3]) it was at least 1 µM; on Lck enzyme (setting [4]), at least 1 µM. In addition, the “EC50 Btk activity values” at Btk enzyme (His-Btk) (setting [1]) is listed as below 100 nM.

For `CC#CC(=O)N1CCC[C@H]1c1nc(-c2ccc(C(=O)Nc3ccccn3)c(OC)c2)c2c(N)nccn12` [Example 99, (S)-4-(8-amino-3-(1-but-2-ynoylpyrrolidin-2-yl)imidazo[1,5-a]pyrazin-1-yl)-2-methoxy-N-(pyridin-2-yl)benzamide], the concentration for a half-maximal effect (EC50) at FynT enzyme was at least 1 µM; on Btk enzyme (His-Btk) it was 10 to 100 nM; at Src enzyme (setting [2]) it was at least 1 µM; at Lyn enzyme (setting [3]) it was at least 1 µM; at Lck enzyme (setting [4]), at least 1 µM. Further, at Btk enzyme (His-Btk) (setting [1]), the “EC50 Btk activity values” is below 100 nM.

Consider `C=CS(=O)(=O)N1CCCC[C@H]1c1nc(-c2ccc(C(=O)Nc3cc(CCC)ccn3)cc2)c2c(N)nccn12` [Example 49, (S)-4-(8-amino-3-(1-(vinylsulfonyl)piperidin-2-yl)imidazo[1,5-a]pyrazin-1-yl)-N-(4-propylpyridin-2-yl)benzamide], for which the EC50 is at least 1 µM on FynT enzyme; below 10 nM on Btk enzyme (His-Btk) (setting [5]); at least 1 µM at Src enzyme (setting [2]); at least 1 µM on Lyn enzyme (setting [3]); at least 1 µM on Lck enzyme (setting [4]).

For `CCCc1ccnc(NC(=O)c2ccc(-c3nc([C@@H]4CCCCN4C(=O)c4ccnc(Cl)n4)n4ccnc(N)c34)cc2)c1` [Example 107, (S)-4-(8-amino-3-(1-(2-chloropyrimidine-4-carbonyl)piperidin-2-yl)imidazo[1,5-a]pyrazin-1-yl)-N-(4-propylpyridin-2-yl)benzamide], the half-maximal effective concentration (EC50) was at least 1 µM on FynT enzyme; below 10 nM at Btk enzyme (His-Btk) (setting [5]); at least 1 µM at Src enzyme (setting [2]); at least 1 µM on Lyn enzyme (setting [3]); at least 1 µM at Lck enzyme (setting [4]).

Turning to `CCCc1ccnc(NC(=O)c2ccc(-c3nc([C@@H]4CCCN4C(=O)/C=C/COC)n4ccnc(N)c34)c(C)c2)c1` [Example 87, 4-(8-amino-3-((S)-1-((E)-4-methoxybut-2-enoyl)pyrrolidin-2-yl)imidazo[1,5-a]pyrazin-1-yl)-3-methyl-N-(4-propylpyridin-2-yl)benzamide], the EC50 is at least 1 µM at FynT enzyme; 100 to 1000 nM at Btk enzyme (His-Btk); at least 1 µM at Src enzyme (setting [2]); at least 1 µM at Lyn enzyme (setting [3]); at least 1 µM at Lck enzyme (setting [4]). Moreover, at Btk enzyme (His-Btk) (IMAP, 60 min pre-incubation, 5 μM ATP, bin bound in μM), the “EC50 Btk activity values” was below 1000 nM.

Take `Nc1nccn2c([C@@H]3CCCN3C(=O)c3ccnc(Cl)n3)nc(-c3ccc(C(=O)Nc4nc5c(s4)CCCC5)cc3)c12` [Example 71, (S)-4-(8-amino-3-(1-(2-chloropyrimidine-4-carbonyl)pyrrolidin-2-yl)imidazo[1,5-a]pyrazin-1-yl)-N-(4,5,6,7-tetrahydrobenzo[d]thiazol-2-yl)benzamide]: the EC50 at FynT enzyme was at least 1 µM; at Btk enzyme (His-Btk), 10 to 100 nM; on Src enzyme (setting [2]) it was at least 1 µM; on Lyn enzyme (setting [3]), at least 1 µM; at Lck enzyme (setting [4]), at least 1 µM. Further, the “EC50 Btk activity values” on Btk enzyme (His-Btk) (setting [1]) is on record as below 100 nM.

As to `COC/C=C/C(=O)N1CCCC[C@H]1c1nc(-c2ccc(C(=O)Nc3cc(C(F)(F)F)ccn3)cc2)c2c(N)nccn12` [Example 108, (S,E)-4-(8-amino-3-(1-(4-methoxybut-2-enoyl)piperidin-2-yl)imidazo[1,5-a]pyrazin-1-yl)-N-(4-(trifluoromethyl)pyridin-2-yl)benzamide], the EC50 is at least 1 µM at FynT enzyme; below 10 nM on Btk enzyme (His-Btk) (setting [5]); at least 1 µM on Src enzyme (setting [2]); at least 1 µM at Lyn enzyme (setting [6]); at least 1 µM on Lck enzyme (setting [4]).

(Values after patent US9758524B2, “4-imidazopyridazin-1-yl-benzamides as Btk inhibitors” (Merck Sharp & Dohme B.V., priority 2011, dated 2017).)
